Results on 1 molecule are retold here after US6514945B1, “Azalide antibiotic compositions” (Pfizer Inc., priority 2000, dated 2003).

Structures are written as SMILES.

A short description of the data set: Equilibration of azalide isomers I and II in heated aqueous acid, monitored by HPLC (Table 1). The format is physicochemical. Conditions: isomer I prior to equilibration, for comparison. On the procedure:
The equilibrium ratio of isomers I and II (about 90%±4% to about 10%±4%, respectively) was consistent for all experiments. […] Without being bound by any theory, lower equilibration temperatures or lower pH values generally result in substantially longer equilibration times. Equilibration time can also depend on, inter alia, the concentration of starting material, and the type and concentration of the acid used. Isomer I at a concentration of up to about 300 mg per mL of composition was heated to a temperature of about 40° C. to about 80° C. in the presence of one or more acids at a concentration of about 0.2 mmol to about 1.0 mmol per mL of mixture and with a sufficient quantity of hydrochloric acid to achieve a pH of about 6.5 to about 7.5 for up to about 20 hours to produce an equilibrium mixture of isomers that is about […] pure. Equilibration kinetic parameters and impurity levels for equilibration of azalide isomers I and II were determined as a function of pH, equilibration temperature, type of acid, and isomer I concentration and are listed in Table 1. […]
Equilibrium mixtures of isomers were prepared and assayed as follows. […] 100 mL of solution were prepared in each of experiments 25C-28C, 200 mL of solution were prepared in each of experiments 29C-30C, and equilibration was monitored from 0.5 mL aliquots removed from the solutions. […]

For the molecule `CCCNC[C@]1(O)[C@H](C)O[C@@H](O[C@H]2[C@H](C)[C@@H](OC3O[C@H](C)C[C@H](N(C)C)[C@H]3O)C(C)(O)C[C@@H](C)CN[C@H](C)[C@@H](O)[C@](C)(O)[C@@H](CC)OC(=O)[C@@H]2C)C[C@@]1(C)OC` (single isomer, unassigned) [isomer I], the “% Equilibrium mixture of isomers” value is given as 98.39% and the “% Impurities” value is reported as 1.61%.
